Each structure is given as a SMILES string.

As a reminder, the IC50 is the concentration at which inhibition is half-maximal.

The target in this assay is T1, human CRHR2-alpha (Homo sapiens, UniProt Q13324).
T1 sequence (Q13324 1-411): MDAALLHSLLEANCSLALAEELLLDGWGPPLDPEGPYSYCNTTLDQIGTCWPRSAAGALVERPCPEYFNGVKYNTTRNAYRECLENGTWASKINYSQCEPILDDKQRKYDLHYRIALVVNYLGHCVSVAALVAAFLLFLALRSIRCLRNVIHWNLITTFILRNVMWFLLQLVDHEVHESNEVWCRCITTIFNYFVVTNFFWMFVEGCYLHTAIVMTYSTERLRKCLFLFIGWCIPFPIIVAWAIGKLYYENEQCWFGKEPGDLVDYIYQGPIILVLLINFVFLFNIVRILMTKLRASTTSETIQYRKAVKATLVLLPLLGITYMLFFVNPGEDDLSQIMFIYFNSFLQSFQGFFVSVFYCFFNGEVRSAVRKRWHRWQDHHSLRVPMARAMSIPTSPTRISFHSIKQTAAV
Put plainly: cAMP functional assay for human CRHR2 (LANCE Ultra cAMP, TR-FRET). The format is cell-based. The settings on record: CHO-K1 cells expressing human CRHR2-alpha, agonist human urocortin2 at EC80, cAMP; read-out: IC50 against CRHR2. How it is done: cAMP functional assay for human CRHR1 and CRHR2
The ability of the compounds of this invention to inhibit either CRHR2 or CRHR1 is assessed by 3′,5′-cyclic adenosine monophosphate (cAMP) production in cells using the LANCE Ultra cAMP assay kit (ParkinElmer), which are designed based on the homogeneous time-resolved fluorescence resonance energy transfer (TR-FRET) immunoassay.
CHO-K1 (Chinese hamster ovary) cells stably expressing either human CRHR2-alpha (DiscoveRX, Cat. 95-0048C2) or human CRHR1-beta (DiscoveRX, Cat. 95-0047C2) are grown in HAM's F12 media supplemented with 10% fetal bovine serum (FBS), 100 units/mL penicillin, 100 microg/mL hygromycin and 0.5 microg/mL geneticin at 37° C. in 5% CO2 humidified incubator to 80% confluence. After 7 hours starvation treatment in culture media containing 0.1% FBS, the cells are washed with Hanks balanced salt solution (HBSS) and cryopreserved.
For cAMP assay, frozen cells are thawed and washed with HBSS, followed by resuspended in assay buffer (HBSS containing 0.1% bovine serum albumin, 0.5 mM isobutylmethylxanthine and 5 mM Hepes, pH 7.4) at the appropriate concentration for the assay. The cell suspensions are plated on 384-well microplates (Greiner Bio-One) at a density of 4,000 cells per well. After preincubating the cells with various concentrations of the compounds for 30 min at 25° C., an assay buffer containing EC80 concentration of each agonist is added and the cells are incubated for 30 min at 25° C. Human urocortin2 (Peptide Institute) and CRF (Peptide Institute) are used as agonists for CRHR2 and CRHR1, respectively. For the termination of assay, europium-labeled cAMP tracer and ULight (registered trademark) dye labeled cAMP antibodies, both prepared with Lance-Ultra cAMP detection reagent (Perkin Elmer) are added in the plate and incubate for 60 min at 25° C. After incubation, TR-FRET signal is detected by EnVision plate reader (PerkinElmer). The IC50 values for compounds are calculated from dose-response curves by fitting the percent inhibition using XLfit (ID Business Solutions).
On the technique in general: In TR-FRET formats the signal depends on donor and acceptor labels being close together.
On to `CNc1cnc(-n2c(=O)n(C[C@H]3CC[C@H](NC(=O)c4cc(Cl)cnc4C)CC3)c3ccccc32)cn1` [Example 115, 5-chloro-2-methyl-N-((1r,4r)-4-((3-(5-(methylamino)pyrazin-2-yl)-2-oxo-2,3-dihydro-1H-benzo [d]imidazol-1-yl)methyl)cyclo-hexyl)nicotinamide], for which the IC50 was less than 300 nM.
Regarding `Cc1ncc(Cl)cc1C(=O)N[C@H]1CC[C@H](Cn2c(=O)n(-c3cnc(N(C)C)cn3)c3ccccc32)CC1` [Example 116, 5-chloro-N-((1r,4r)-4-((3-(5-(dimethylamino)pyrazin-2-yl)-2-oxo-2,3-dihydro-1H-benzo[d]imidazol-1-yl)methyl)cyclo-hexyl)-2-methylnicotinamide], the IC50 was less than 300 nM.
With `COc1cc(-n2c(=O)n(C[C@H]3CC[C@H](NC(=O)c4cc(Cl)cnc4C)CC3)c3ccccc32)cnc1OC` [Example 118, 5-chloro-N-((1r,4r)-4-((3-(5,6-dimethoxypyridin-3-yl)-2-oxo-2,3-dihydro-1H-benzo[d]imidazol-1-yl)methyl)cyclo-hexyl)-2-methylnicotinamide], the IC50 was less than 300 nM.
For `Cc1cc(-n2c(=O)n(C[C@H]3CC[C@H](NC(=O)c4cc(Cl)cnc4C)CC3)c3ccccc32)cnc1C` [Example 119, 5-chloro-N-((1r,4r)-4-((3-(5,6-dimethylpyridin-3-yl)-2-oxo-2,3-dihydro-1H-benzo[d]imidazol-1-yl)methyl)cyclo-hexyl)-2-methylnicotinamide], the concentration for half-maximal inhibition (IC50) was less than 300 nM.
With `COc1ncc(-n2c(=O)n(C[C@H]3CC[C@H](NC(=O)c4cc(Cl)cnc4C)CC3)c3ccccc32)cc1C` [Example 120, 5-chloro-N-((1r,4r)-4-((3-(6-methoxy-5-methylpyridin-3-yl)-2-oxo-2,3-dihydro-1H-benzo[d]imidazol-1-yl)methyl)cyclohexyl)-2-methylnicotinamide], the IC50 is less than 300 nM.
As to `Cc1ccc(-n2c(=O)n(C[C@H]3CC[C@H](NC(=O)c4cc(Cl)cnc4C)CC3)c3cccc(F)c32)cn1` [Example 121, 5-chloro-N-((1r,4r)-4-((4-fluoro-3-(6-methylpyridin-3-yl)-2-oxo-2,3-dihydro-1H-benzo[d]imidazol-1-yl)methyl)cyclo-hexyl)-2-methylnicotinamide], the IC50 is less than 300 nM.
Regarding `Cc1ccc(-n2c(=O)n(C[C@H]3CC[C@H](NC(=O)c4cc(Cl)cnc4C)CC3)c3ccc(F)cc32)cn1` [Example 122, 5-chloro-N-((1r,4r)-4-((5-fluoro-3-(6-methylpyridin-3-yl)-2-oxo-2,3-dihydro-1H-benzo[d]imidazol-1-yl)methyl)cyclo-hexyl)-2-methylnicotinamide], the IC50 was less than 300 nM.
Regarding `Cc1ccc(-n2c(=O)n(C[C@H]3CC[C@H](NC(=O)c4cc(Cl)cnc4C)CC3)c3cc(F)ccc32)cn1` [Example 123, 5-chloro-N-((1r,4r)-4-((6-fluoro-3-(6-methylpyridin-3-yl)-2-oxo-2,3-dihydro-1H-benzo[d]imidazol-1-yl)methyl)cyclo-hexyl)-2-methylnicotinamide], the IC50 was less than 300 nM.
In the case of `Cc1ccc(-n2c(=O)n(C[C@H]3CC[C@H](NC(=O)c4cc(Cl)cnc4C)CC3)c3c(F)cccc32)cn1` [Example 124, 5-chloro-N-((1r,4r)-4-((7-fluoro-3-(6-methylpyridin-3-yl)-2-oxo-2,3-dihydro-1H-benzo[d]imidazol-1-yl)methyl)cyclo-hexyl)-2-methylnicotinamide], the IC50 was less than 300 nM.
Consider `Cc1ncc(Cl)cc1C(=O)N[C@H]1CC[C@H](Cn2c(=O)n(-c3ccc(NC4CCC4)nc3)c3ccccc32)CC1` [Example 125, 5-chloro-N-((1r,4r)-4-((3-(6-(cyclobutylamino)pyridin-3-yl)-2-oxo-2,3-dihydro-1H-benzo[d]imidazol-1-yl)methyl)cyclo-hexyl)-2-methylnicotinamide], for which the IC50 is less than 300 nM.
For `COC1CCN(c2ccc(-n3c(=O)n(C[C@H]4CC[C@H](NC(=O)c5cc(Cl)cnc5C)CC4)c4ccccc43)cn2)CC1` [Example 126, 5-chloro-N-((1r,4r)-4-((3-(6-(4-methoxypiperidin-1-yl)pyridin-3-yl)-2-oxo-2,3-di-hydro-1H-benzo[d]imidazol-1-yl)methyl)cyclohexyl)-2-methylnicotinamide] the value was less than 300 nM; for `Cc1ccc(-n2c(=O)n(C[C@H]3CC[C@H](NC(=O)c4cc(Cl)cnc4C)CC3)c3ccccc32)cc1CO` [Example 127, 5-chloro-N-((1r,4r)-4-((3-(3-(hydroxymethyl)-4-methylphenyl)-2-oxo-2,3-dihydro-1H-benzo[d]imidazol-1-yl)methyl)cyclo-hexyl)-2-methylnicotinamide], less than 300 nM; for `Cc1ncc(Cl)cc1C(=O)N[C@H]1CC[C@H](Cn2c(=O)n(-c3ccc(C(=O)NC4COC4)cc3)c3ccccc32)CC1` [Example 130, 5-chloro-2-methyl-N-((1r,4r)-4-((3-(4-(oxetan-3-ylcarbamoyl)phenyl)-2-oxo-2,3-dihydro-1H-benzo[d]imidazol-1-yl)methyl)cyclohexyl)nicotinamide], less than 300 nM.
Regarding `CNc1ncc(-n2c(=O)n(C[C@H]3CC[C@H](NC(=O)c4cc(Cl)cnc4C)CC3)c3ccccc32)cc1C` [Example 133, 5-chloro-2-methyl-N-((1r,4r)-4-((3-(5-methyl-6-(methyl-amino)pyridin-3-yl)-2-oxo-2,3-dihydro-1H-benzo[d]imidazol-1-yl)methyl)cyclohexyl) nicotinamide], the IC50 was less than 300 nM.
Turning to `Cc1ncc(Cl)cc1C(=O)N[C@H]1CC[C@H](Cn2c(=O)n(-c3ccc(OCCCO)nc3)c3ccccc32)CC1` [Example 134, 5-chloro-N-((1r,4r)-4-((3-(6-(3-hydroxypropoxy)pyridin-3-yl)-2-oxo-2,3-dihydro-1H-benzo[d]imidazol-1-yl)methyl)cyclohexyl)-2-methylnicotinamide], the 50% inhibitory concentration (IC50) was less than 300 nM.
`Cc1ncc(Cl)cc1C(=O)N[C@H]1CC[C@H](Cn2c(=O)n(-c3ccc(OC4COC4)nc3)c3ccccc32)CC1` [Example 140, 5-chloro-2-methyl-N-((1r,4r)-4-((3-(6-(oxetan-3-yloxy)pyridin-3-yl)-2-oxo-2,3-dihydro-1H-benzo[d]imidazol-1-yl)methyl)cyclohexyl)nicotinamide]: the 50% inhibitory concentration (IC50) was less than 300 nM.
As for `Cc1ncc(Cl)cc1C(=O)N[C@H]1CC[C@H](Cn2c(=O)n(-c3ccc4c(cnn4C)c3)c3ccccc32)CC1` [Example 141, 5-chloro-2-methyl-N-((1r,4r)-4-((3-(1-methyl-1H-indazol-5-yl)-2-oxo-2,3-dihydro-1H-benzo [d]imidazol-1-yl)methyl)cyclohexyl)nicotinamide], the IC50 is less than 300 nM.
In the case of `COC1CN(c2ccc(-n3c(=O)n(C[C@H]4CC[C@H](NC(=O)c5cc(Cl)cnc5C)CC4)c4ccccc43)cn2)C1` [Example 144, 5-chloro-N-((1r,4r)-4-((3-(6-(3-methoxyazetidin-1-yl)pyridin-3-yl)-2-oxo-2,3-dihydro-1H-benzo[d]imidazol-1-yl)methyl)cyclohexyl)-2-methylnicotinamide], the half-maximal inhibitory concentration (IC50) is less than 300 nM.
In the case of `Cc1ncc(Cl)cc1C(=O)N[C@H]1CC[C@H](Cn2c(=O)n(-c3ccc(N4CC(F)C4)nc3)c3ccccc32)CC1` [Example 145, 5-chloro-N-((1r,4r)-4-((3-(6-(3-fluoroazetidin-1-yl)pyridin-3-yl)-2-oxo-2,3-dihydro-1H-benzo[d]imidazol-1-yl)methyl)cyclo-hexyl)-2-methylnicotinamide], the IC50 was less than 300 nM.
As for `Cc1ncc(Cl)cc1C(=O)N[C@H]1CC[C@H](Cn2c(=O)n(-c3ccc(N4CC(F)(F)C4)nc3)c3ccccc32)CC1` [Example 146, 5-chloro-N-((1r,4r)-4-((3-(6-(3,3-difluoroazetidin-1-yl)pyridin-3-yl)-2-oxo-2,3-dihydro-1H-benzo[d]imidazol-1-yl)methyl)cyclo-hexyl)-2-methylnicotinamide], the IC50 was less than 300 nM.
As for `Cc1ncc(Cl)cc1C(=O)N[C@H]1CC[C@H](Cn2c(=O)n(-c3ccc(NC4COC4)nc3)c3ccccc32)CC1` [Example 147, 5-chloro-2-methyl-N-((1r,4r)-4-((3-(6-(oxetan-3-ylamino)pyridin-3-yl)-2-oxo-2,3-dihydro-1H-benzo[d]imidazol-1-yl)methyl)cyclo-hexyl)nicotinamide], the IC50 was less than 300 nM.

Values taken from patent US11802120B2, “Fused cyclic urea derivatives as CRHR2 antagonist” (RaQualia Pharma Inc., priority 2018, dated 2023).
